Test results as given in US20130022620A1, “ASSAYS AND METHODS PERTAINING TO PRE-AMYLOID INTERMEDIATES” (priority 2011, published 2013).
Positions of bridges follow the written chain, without caps; N, C: chain ends. No end group written: not given here.

Legend:
sRAGE [1] = target: T1, sRAGE (Homo sapiens, UniProt Q15109); assay: Difference CD of IAPP peptides with sRAGE; type: binding; conditions: end point of the reactions
T1 construct: the soluble extracellular domain of RAGE (sRAGE); made in house; host or cells: Sf9 insect cells (baculovirus)
Protocol: CD measurements of IAPP, sRAGE and IAPP/sRAGE reactions were taken at various incubation times. Far-UV CD experiments monitor the development of secondary structure of h-IAPP species and give insight into the conformational requirement for IAPP/RAGE-binding. All CD experiments were performed on an Applied Photophysics circular dichroism spectrophotometer by directly transferring 300 μL of peptide solution from kinetic assays into a 0.1 cm quartz cuvette a few minutes prior to data collection. The CD spectra for sRAGE and tris HCl buffer was subtracted from all RAGE/IAPP mixtures. The final far-UV CD data was collected over the range of 190 to 260 nm. Final solution conditions contained 16 mM tris HCl (pH 7.4).

sRAGE [2] = target: T1, sRAGE; assay: Tryptophan fluorescence quenching assay of sRAGE binding; conditions: sRAGE added at different time points of the reaction, 1:1 molar ratio
Description: The quenching of tryptophan fluorescence indicates binding. Fluorescence measurements were made at right angle in a […] dual path length quartz cuvette, using a Photon Technology International fluorescent spectrometer (280 nm excitation and 350 nm emission). Background fluorescence from buffer and IAPP peptides were negligible. The fluorescence quantum yield reported for each time point is an average of 20 reads over 20 seconds (2.5 nm bandwidth and 1 second integration time). Final solution conditions contained 16 mM tris HCl (pH 7.4).

h-IAPP = target: T2, h-IAPP (Homo sapiens, UniProt P10997); conditions: I26P point mutant; Fanling et al. 2010; cited from earlier work
T2 sequence (P10997 34-70 limits assumed): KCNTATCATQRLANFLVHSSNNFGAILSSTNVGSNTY

rat INS-1 β-cells = assay: AlamarBlue cell viability assay of β-cells; type: cell-based
Protocol: Transformed rat insulinoma-1 (INS-1) β-cells (which express RAGE) are a pancreatic beta cell line commonly used for studies of h-IAPP induced toxicity. INS-1 cells were grown in RPMI 1640 supplemented with 10% fetal bovine serum (FBS), 11 mM glucose, 10 mM Hepes, 2 mM L-glutamine, 1 mM sodium pyruvate, 50 μM β-mercaptoethanol, 100 U/ml penicillin, and […] streptomycin. Cells were maintained at 37° C./5% CO2.
Cyto-toxicity was measured by AlamarBlue assay. INS-1 β-cells were seeded at a density of 30,000 cells per well in 96-well plates and cultured for 24 hours prior to stimulation with IAPP. Human and rat IAPP were dissolved and incubated in 16 mM tris HCl (pH 7.4, 25° C.) prior to cell stimulation. AlamarBlue was diluted ten-fold in culture media and cells were incubated for 5 hours at 37° C. Fluorescence (excitation 530; emission 590 nm) was measured on a Beckman Coulter DTX880 fluorescent plate reader. Values calculated were relative to those of control cells treated with buffer only. All values represent means±SEM (n=3).
Changes in cell morphology were examined by light microscopy to provide a second method of evaluating cell viability. Transformed rat INS-1 beta cells were photographed immediately prior to assessment of toxicity by Alamar blue cell viability assays. Images were taken using an Olympus BX-61 light microscope.

[3] = Thioflavin-T kinetics and TEM of amyloid formation by IAPP peptides; type: physicochemical
Protocol: Thioflavin-T fluorescence was used to monitor the time course of h-IAPP amyloid formation in the presence and absence of sRAGE. To identify which form(s) of h-IAPP interact with RAGE, sRAGE was added to h-IAPP at various time points during the h-IAPP amyloid formation reaction. Aliquots of the reaction mixture were analyzed by adding 100 uL aliquots of the amyloid formation reaction to 96-well plates containing 8 uL of 60 uM thioflavin-T solution at various incubation times after initiation of the amyloid formation reaction. Fluorescence was measured using a Beckman Coulter DTX880 fluorescent plate reader (excitation: 445 nm and emission: 485 nm). Final solution conditions contained 16 mM tris HCl and […] thioflavin-T (pH 7.4). […] All values represent means±SEM (n=3).
Transient kinetic species of h-IAPP were characterized by TEM. TEM images confirm the presence or absence of amyloid which were indicated by thioflavin-T fluorescence. Aliquots (4 μl) were removed from the reaction mixtures monitored by thioflavin-T assays, placed on a carbon-coated 200-mesh copper grid and negatively stained with saturated uranyl acetate. The samples were imaged with a Philips CM12 transmission electron microscope at the New York University electron microscopy core facility. Final solution conditions contained 16 mM tris HCl (pH 7.4).

[4] = Ser-20 substitution; Cao et al. 2011; cited from earlier work

T1 sequence (Q15109 23-342): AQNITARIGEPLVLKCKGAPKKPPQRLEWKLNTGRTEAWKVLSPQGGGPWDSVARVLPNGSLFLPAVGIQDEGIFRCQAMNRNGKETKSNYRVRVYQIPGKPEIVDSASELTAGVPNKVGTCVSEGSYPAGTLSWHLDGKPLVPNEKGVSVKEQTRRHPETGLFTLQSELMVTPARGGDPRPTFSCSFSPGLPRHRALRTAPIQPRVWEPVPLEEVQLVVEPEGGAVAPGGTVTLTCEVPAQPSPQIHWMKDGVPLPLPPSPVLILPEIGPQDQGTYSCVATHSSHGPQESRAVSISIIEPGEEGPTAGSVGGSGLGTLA

Row | Substance | interaction with sRAGE (difference CD) (sRAGE [1]) | binding to sRAGE (tryptophan fluorescence quenching) (sRAGE [2]) | inhibition of h-IAPP amyloid formation (h-IAPP) | toxicity by itself (rat INS-1 β-cells; 40 uM, pH 7.4 25° C.) | effect of the amyloid inhibitor on duration of h-IAPP toxicity (rat INS-1 β-cells; 1:1 mixture with 40 uM h-IAPP) | amyloid formation (thioflavin-T) ([3]; peptide by itself) | lag phase and rate of amyloid formation [4] | onset and duration of toxicity compared to wild type (rat INS-1 β-cells; side-by-side with kinetics, 20 uM for the Ser-20 mutants) | rate of aggregation compared to wild type ([3]; 20 uM, pH 7.4 25° C.)
1 | I26P-IAPP: I26P point mutant of h-IAPP, inhibitor of h-IAPP amyloid formation (KCNTATCATQRLANFLVHSSNNFGAPLSSTNVGSNTY-NH2; disulfide 2-7; N-terminus assumed; SMILES CC(C)C[C@H](NC(=O)[C@H](CCCNC(=N)N)NC(=O)[C@H](CCC(N)=O)NC(=O)[C@@H](NC(=O)[C@H](C)NC(=O)[C@@H]1CSSC[C@H](NC(=O)[C@@H](N)CCCCN)C(=O)N[C@@H](CC(N)=O)C(=O)N[C@@H]([C@@H](C)O)C(=O)N[C@@H](C)C(=O)N[C@@H]([C@@H](C)O)C(=O)N1)[C@@H](C)O)C(=O)N[C@@H](C)C(=O)N[C@@H](CC(N)=O)C(=O)N[C@@H](Cc1ccccc1)C(=O)N[C@@H](CC(C)C)C(=O)N[C@H](C(=O)N[C@@H](Cc1c[nH]cn1)C(=O)N[C@@H](CO)C(=O)N[C@@H](CO)C(=O)N[C@@H](CC(N)=O)C(=O)N[C@@H](CC(N)=O)C(=O)N[C@@H](Cc1ccccc1)C(=O)NCC(=O)N[C@@H](C)C(=O)N1CCC[C@H]1C(=O)N[C@@H](CC(C)C)C(=O)N[C@@H](CO)C(=O)N[C@@H](CO)C(=O)N[C@H](C(=O)N[C@@H](CC(N)=O)C(=O)N[C@H](C(=O)NCC(=O)N[C@@H](CO)C(=O)N[C@@H](CC(N)=O)C(=O)N[C@H](C(=O)N[C@@H](Cc1ccc(O)cc1)C(N)=O)[C@@H](C)O)C(C)C)[C@@H](C)O)C(C)C) | does not interact | No binding was detected | potent inhibitor of h-IAPP amyloid formation | is not toxic by itself | increases the duration of toxicity | does not form amyloid |  |  | 
2 | S20G-IAPP: S20G mutation of human IAPP, SEQ ID NO: 3 (KCNTATCATQRLANFLVHSGNNFGAILSSTNVGSNTY-NH2; disulfide 2-7; N-terminus assumed; SMILES CC[C@H](C)[C@H](NC(=O)[C@H](C)NC(=O)CNC(=O)[C@H](Cc1ccccc1)NC(=O)[C@H](CC(N)=O)NC(=O)[C@H](CC(N)=O)NC(=O)CNC(=O)[C@H](CO)NC(=O)[C@H](Cc1c[nH]cn1)NC(=O)[C@@H](NC(=O)[C@H](CC(C)C)NC(=O)[C@H](Cc1ccccc1)NC(=O)[C@H](CC(N)=O)NC(=O)[C@H](C)NC(=O)[C@H](CC(C)C)NC(=O)[C@H](CCCNC(=N)N)NC(=O)[C@H](CCC(N)=O)NC(=O)[C@@H](NC(=O)[C@H](C)NC(=O)[C@@H]1CSSC[C@H](NC(=O)[C@@H](N)CCCCN)C(=O)N[C@@H](CC(N)=O)C(=O)N[C@@H]([C@@H](C)O)C(=O)N[C@@H](C)C(=O)N[C@@H]([C@@H](C)O)C(=O)N1)[C@@H](C)O)C(C)C)C(=O)N[C@@H](CC(C)C)C(=O)N[C@@H](CO)C(=O)N[C@@H](CO)C(=O)N[C@H](C(=O)N[C@@H](CC(N)=O)C(=O)N[C@H](C(=O)NCC(=O)N[C@@H](CO)C(=O)N[C@@H](CC(N)=O)C(=O)N[C@H](C(=O)N[C@@H](Cc1ccc(O)cc1)C(N)=O)[C@@H](C)O)C(C)C)[C@@H](C)O; listed as Homo sapiens) |  |  |  |  |  |  | abolishes the lag phase and increases the rate of amyloid formation | faster onset and shorter duration of toxicity compared to wild type | faster rate of aggregation
